Measured values from US8357406B2, “Method for preparing raw material for functional foods from barley or wheat seeds” (priority 2009, dated 2013).

Key:
Format in all cases: biochemical
[1] = DPPH radical scavenging activity; conditions: 0.4 mM DPPH, room temperature 10 min, absorbance 517 nm; average±SD of three measurements
Description: For use in this assay, the samples prepared in the Examples and Comparative Examples were lyophilised and/or dried and pulverized into powders.
The samples were evaluated for DPPH radical scavenging activity according to the Brand-Williams method (Brand-Williams et al., Use of a free radical method to evaluate antioxidant activity. Food Sci. Technol. 28(1): 25-30, (1995)). The samples were added at various concentrations to 0.4 mM DPPH which was then incubated at room temperature for 10 min, followed by measuring absorbance at 517 nm.
(§1) The data are average±standard deviation of three measurements.
For the positive control, the commercially available antioxidant BHA ([…], butylated hydroxy anisole) was employed.

[2] = Superoxide anion radical scavenging activity (NBT reduction method, xanthine/xanthine oxidase system); conditions: 25 mU/mL xanthine oxidase, 0.05 mM xanthine, 0.6 mM NBT, 25° C. 20 min, absorbance 560 nm; average±SD of three measurements
Description: Superoxide anion radical scavenging activity was evaluated by the NBT (nitro blue tetrazolium) reduction method in which NBT is reduced by the superoxide anion radicals formed in a xanthine/xanthine oxydase system.
Along with 25 mU/mL of xanthine oxidase, the samples were added at various concentrations to 1.5 mL of a reaction solution containing 50 mM potassium phosphate buffer (pH 7.8), 0.05 mM xanthine, and 0.6 mM NBT, and incubated at 25° C. for 20 min before measuring absorbance at 560 nm.
as §1
For a positive control, the commercially available antioxidant BHA ([…], butylated hydroxy anisole) was employed.

[3] = target: xanthine oxidase (Homo sapiens, UniProt P47989); assay: Inhibitory activity against xanthine oxidase (uric acid production, absorbance at 290 nm); conditions: samples 1 mg/mL, 50 mU/ml xanthine oxidase; average±SD of three measurements
Description: Inhibitory activity against xanthine oxidase was evaluated by the level of the uric acid produced in the xanthine/xanthine oxidase system, which can be quantitatively analyzed by absorbance at 290 nm.
100 μL of 200 mM phosphate buffer (pH 7.5) containing 0.5 mM xanthine and 1 mM EDTA was mixed with 100 μL of the samples (1 mg/mL) to which 50 mU/ml xanthine oxidase was then added to induce the production of uric acid. The produced uric acid was quantitatively analyzed by absorbance at 290 nm.
Allopurinol, a xanthine […] inhibitor used to treat gout, was used as a positive control.

Sequence of xanthine oxidase (P47989 whole entry, species assumed): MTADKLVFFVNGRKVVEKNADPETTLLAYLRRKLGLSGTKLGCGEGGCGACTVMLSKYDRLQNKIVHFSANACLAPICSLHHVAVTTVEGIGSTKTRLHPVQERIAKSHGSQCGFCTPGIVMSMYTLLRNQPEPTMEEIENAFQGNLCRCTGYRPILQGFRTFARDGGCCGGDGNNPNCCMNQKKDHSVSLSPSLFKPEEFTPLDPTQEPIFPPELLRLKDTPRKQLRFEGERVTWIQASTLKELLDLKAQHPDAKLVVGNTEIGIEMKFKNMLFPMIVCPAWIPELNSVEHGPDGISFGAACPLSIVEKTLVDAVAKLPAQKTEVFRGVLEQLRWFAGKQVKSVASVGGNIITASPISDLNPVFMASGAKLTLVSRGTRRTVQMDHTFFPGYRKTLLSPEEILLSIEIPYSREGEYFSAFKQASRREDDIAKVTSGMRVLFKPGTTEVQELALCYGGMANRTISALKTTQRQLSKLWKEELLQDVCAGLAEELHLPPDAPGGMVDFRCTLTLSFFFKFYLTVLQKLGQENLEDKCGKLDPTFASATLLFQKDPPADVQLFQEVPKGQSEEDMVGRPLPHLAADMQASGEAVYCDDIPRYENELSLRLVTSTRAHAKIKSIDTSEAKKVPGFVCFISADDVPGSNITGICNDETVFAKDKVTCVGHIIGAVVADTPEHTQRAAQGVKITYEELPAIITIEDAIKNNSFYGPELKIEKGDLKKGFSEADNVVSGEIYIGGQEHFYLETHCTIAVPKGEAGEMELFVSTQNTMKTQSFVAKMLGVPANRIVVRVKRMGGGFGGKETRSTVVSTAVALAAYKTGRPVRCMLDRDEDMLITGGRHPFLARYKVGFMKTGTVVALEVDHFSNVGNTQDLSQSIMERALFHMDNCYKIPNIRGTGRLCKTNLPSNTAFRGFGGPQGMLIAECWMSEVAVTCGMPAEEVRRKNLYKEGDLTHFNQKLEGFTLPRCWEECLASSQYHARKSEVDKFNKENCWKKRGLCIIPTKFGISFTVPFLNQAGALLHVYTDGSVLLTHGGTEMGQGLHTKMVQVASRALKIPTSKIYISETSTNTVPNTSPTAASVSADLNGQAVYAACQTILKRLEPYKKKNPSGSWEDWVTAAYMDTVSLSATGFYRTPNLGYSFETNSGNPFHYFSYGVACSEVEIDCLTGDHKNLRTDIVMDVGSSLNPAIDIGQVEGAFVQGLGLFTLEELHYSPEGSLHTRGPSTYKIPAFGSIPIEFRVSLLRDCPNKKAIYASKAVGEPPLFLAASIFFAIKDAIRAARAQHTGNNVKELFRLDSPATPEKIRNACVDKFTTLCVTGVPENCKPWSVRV

Compound | DPPH Radical Scavenging Activity IC50 [1] | Superoxide Anion Radical Scavenging Activity IC50 [2] | Xanthine oxidase Inhibition (%) [3]
COc1ccc(O)c(C(C)(C)C)c1 [BHA, butylated hydroxy anisole] | 620 ± 110 µg/mL | 1120 ± 240 µg/mL | 
Oc1ncnc2[nH]ncc12 [Allopurinol] |  |  | 88.2 ± 2.1%
